Data taken from patent US11873290B2, “Pyridazinone compounds and uses thereof” (Edgewise Therapeutics, Inc., priority 2018, dated 2024).

Biological target: skeletal myofibrils (myosin ATPase activity)
Experiment: Skeletal Myofibril ATPase Assay
Type: biochemical
Details: PK-LDH coupled, absorbance at 340 nm
Procedure: Overview: Myosin ATPase activity is assessed by using a coupled reaction system, in which ADP generated by the myosin ATPase function is coupled to the disappearance of NADH through the pyruvate kinase/lactate dehydrogenase (PK-LDH) system. Myosin ATPase activity produces ADP, which is used as a substrate for PK to produce pyruvate and regenerate ATP. The pyruvate is then used as a substrate by LDH to oxidize NADH to NAD+. The rate of the reaction is monitored through the time-dependent disappearance of NADH using absorbance at 340 nm. Inhibition of ATPase activity by the assayed compounds is indicated by a reduced rate of NADH loss, relative to vehicle-treated controls, over the experimental time window. To assess the selectivity of the assayed compounds for skeletal myofibrils, the compounds are counter-screened in cardiac myofibrils.
Materials: The following stock solutions and reagents were used in the Skeletal Myofibril ATPase Assay:
Stock Solutions of pCa buffer. Combine PIPES, CaCl2, and EGTA solutions with 70 mL of water. Adjust pH to 7.0 and bring final volume to 100 mL.
Skeletal Myofibril ATPase Assay Procedure: BSA, ATP, NADH, PEP, and DTT solutions were thawed at room temperature, then transferred to ice. Pellet-frozen myofibrils (approximately twice the required volume) were transferred into a sufficiently large tube and capped. Myofibrils were thawed by rolling in a water bath for approximately 15 min at room temperature and cooled on ice. Buffers A and B were prepared by adjusting volumes as necessary for required number of wells and stored on ice. 0.5 μL of the compounds to be assayed were added into wells of a 384-well plate. Buffers A and B were mixed by inversion immediately prior to use, then 25 μL of each was dispensed using a Multidrop dispenser (Buffer A first, then Buffer B). The absorbance within the wells was measured at 340 nm, using a kinetic protocol in which the wells are read every 1.5-2 min for 1 h. The reaction rate was qualitatively assessed by subtracting the minimum absorbance value from the maximum value for each well, using either the SoftMax Pro plate reader software or a spreadsheet program such as Excel. Using GraphPad Prism 8.0, the data was normalized, with 100% activity defined as the absorbance change in the 1% DMSO vehicle wells and 0% assigned to no change in absorbance over the course of the experiment. The normalized data were fit to a variable-slope four-parameter logistic model, constraining the bottom to be 0 or greater. Compounds of Table 1 to 4 were tested and results of the assay appear in Table 5 herein. A=IC50 is less than or equal to 10 μM; B=IC50 is greater than 10 μM and less than 100 μM; C=IC50 is greater than 100 μM; […].

| SMILES | IC50 |
| --- | --- |
| O=c1ccc(-c2cnc(OCC(F)(F)F)nc2)nn1Cc1cnoc1 [Compound 85, 2-(isoxazol-4-ylmethyl)-6-(2-(2,2,2-trifluoroethoxy)pyrimidin-5-yl)pyridazin-3(2H)-one] | 10 to 100 µM |
| Cc1cc(O)c(Cn2nc(-c3cnc(OCC(F)(F)F)nc3)ccc2=O)cn1 [Compound 86, 2-((4-hydroxy-6-methylpyridin-3-yl)methyl)-6-(2-(2,2,2-trifluoroethoxy)pyrimidin-5-yl)pyridazin-3(2H)-one] | > 100 µM |
| Cc1ncc(Cn2nc(-c3cnc(OCC(F)(F)F)nc3)ccc2=O)cc1Cl [Compound 87, 2-((5-chloro-6-methylpyridin-3-yl)methyl)-6-(2-(2,2,2-trifluoroethoxy)pyrimidin-5-yl)pyridazin-3(2H)-one] | < 10 µM |
| O=c1ccc(-c2cnc(OCC(F)(F)F)nc2)nn1Cc1nc(-c2ccc(F)cc2)no1 [Compound 88, 2-((3-(4-fluorophenyl)-1,2,4-oxadiazol-5-yl)methyl)-6-(2-(2,2,2-trifluoroethoxy)pyrimidin-5-yl)pyridazine-3(2H)-one] | < 10 µM |
| O=c1ccc(-c2cnc(OCC3(F)COC3)nc2)nn1Cc1nc(-c2ccccc2)no1 [Compound 91] | < 10 µM |
| O=c1ccc(-c2cnc(OCC3(F)COC3)nc2)nn1Cc1nnc(-c2ccccc2)s1 [Compound 92, 6-(2-((3-fluorooxetan-3-yl)methoxy)pyrimidin-5-yl)-2-((5-phenyl-1,3,4-thiadiazol-2-yl)methyl)pyridazin-3(2H)-one] | < 10 µM |
| O=c1ccc(-c2cnc(OCC(F)(F)F)nc2)nn1Cc1nnc(-c2ccccc2)s1 [Compound 94, 2-((5-phenyl-1,3,4-thiadiazol-2-yl)methyl)-6-(2-(2,2,2-trifluoroethoxy)pyrimidin-5-yl)pyridazin-3(2H)-one] | < 10 µM |
| O=c1ccc(-c2cnc(OCC(F)(F)F)nc2)nn1Cc1nnc(N2CCCCC2)s1 [Compound 95, 2-((5-(piperidin-1-yl)-1,3,4-thiadiazol-2-yl)methyl)-6-(2-(2,2,2-trifluoroethoxy)pyrimidin-5-yl)pyridazin-3(2H)-one] | < 10 µM |
| O=c1ccc(-c2cnc(OCC(F)(F)F)nc2)nn1Cc1ccc2[nH]ncc2c1 [Compound 96, 2-((1H-indazol-5-yl)methyl)-6-(2-(2,2,2-trifluoroethoxy)pyrimidin-5-yl)pyridazin-3(2H)-one] | < 10 µM |
| O=c1ccc(-c2cnc(OCCOC(F)(F)F)nc2)nn1Cc1cncc(F)c1 [Compound 97, 2-((5-fluoropyridin-3-yl)methyl)-6-(2-(2-(trifluoromethoxy)ethoxy)pyrimidin-5-yl)pyridazine-3(2H)-one] | < 10 µM |
| CCc1ncc(Cn2nc(-c3cnc(OCC(F)(F)F)nc3)ccc2=O)s1 [Compound 99, 2-((2-ethylthiazol-5-yl)methyl)-6-(2-(2,2,2-trifluoroethoxy)pyrimidin-5-yl)pyridazine-3(2H)-one] | < 10 µM |

Second part, the compound after the results:

| IC50 | SMILES |
| --- | --- |
| < 10 µM | O=c1ccc(-c2cnc(OCC(F)(F)F)nc2)nn1Cc1cnc(C2CC2)s1 [Compound 100, 2-((2-cyclopropylthiazol-5-yl)methyl)-6-(2-(2,2,2-trifluoroethoxy)pyrimidin-5-yl)pyridazine-3(2H)-one] |
| < 10 µM | Cc1cncc(Cn2nc(-c3cnc(OCC(F)(F)F)nc3)ccc2=O)c1 [Compound 101, 2-((5-methylpyridin-3-yl)methyl)-6-(2-(2,2,2-trifluoroethoxy)pyrimidin-5-yl)pyridazine-3(2H)-one] |
| < 10 µM | CSCCOc1ncc(-c2ccc(=O)n(Cc3cncc(F)c3)n2)cn1 [Compound 102] |
| < 10 µM | O=c1ccc(-c2cnc(OCC3COC3)nc2)nn1Cc1cncc(F)c1 [Compound 103, 2((5-fluoropyridin-3-yl)methyl)-6-(2-(oxetan-3-ylmethoxy)pyrimidin-5-yl)pyridazine-3(2H)-one] |
| < 10 µM | CC(C)(C)COc1ncc(-c2ccc(=O)n(Cc3cncc(F)c3)n2)cn1 [Compound 104, 2((5-fluoropyridin-3-yl)methyl)-6-(2-(neopentyloxy)pyrimidin-5-yl)pyridazine-3(2H)-one] |
